From patent US10709129B2, “Synergistic combination of bis-(3-aminopropyl)dodecylamine and sorbic acid” (DDP SPECIALTY ELECTRONIC MATERIALS US, INC., priority 2016, dated 2020)

How the values were obtained:
[1] = test system: Pseudomonas aeruginosa (DSMZ#939); test: Minimum Inhibitory Concentration (MIC) test and synergy index (Kull method), TSB pH 5; format: cell-based; settings: DSM 939 / DSMZ939, Pseudomonas aeruginosa DSM# 939, 30° C., 48 hours, read-out: MIC results for single biocides
Procedure: (§1) The synergism of the biocides combination of the present invention was determined using the Minimum Inhibitory (MIC) test method described by Kull, F. C., et. al in Applied Microbiology 9:538-541 (1961). The formula to calculate the synergy index (SI) is SI=Qa/QA+Qb/QB Where • QA=minimum inhibitory concentration in ppm of compound A acting alone • Qa=minimum inhibitory concentration in ppm of compound A in the mixture. • QB=minimum inhibitory concentration in ppm of compound B acting alone. • Qb=minimum inhibitory concentration in ppm of compound B in the mixture. […] The Minimum Inhibitory Concentration Test (MIC) is designed to evaluate the lowest concentration of a biocide, biocide blend or biocide combination to prevent bacteria growing in a defined broth. […] The synergy testing was carried out as follows: • 1. The test was executed with a Hamilton MLStarPlus robot using automated turbidity reading with BioTek Synergy H4 plate reader. • 2. […] Reading of the results was carried out by measuring absorbance at 600 nm for each sample at the beginning of the test (tzero) and after incubation (tendpoint). tendpoint was chosen at 48 hours for bacteria and 72 hours for yeast. The difference in absorbance between tendpoint and tzero was used to determine growth (Δ>0.2) or no growth (Δ≤0.2).

[2] = test system: Candida albicans (DSMZ#1386); test: as above; format: cell-based; settings: DSM 1386 / DSMZ1386, Candida albicans DSM# 1386, 30° C., 72 hours, read-out: MIC results for single biocides
Procedure: as §1

SMILES	MIC [1]	MIC [2]
CCCCCCCCCCCCN(CCCN)CCCN [BDA, bis-(3-aminopropyl)dodecylamine]	200 µg/mL	≥ 260 µg/mL
C/C=C/C=C/C(=O)O [SA, sorbic acid]	1230 µg/mL	725 µg/mL
